Structures can show the parent of a compound that is named as a salt.
These compounds were tested against T1, hNaV1.7 (Homo sapiens, UniProt Q15858) (assay: Patch voltage clamp electrophysiology (EP), Syncropatch 384PE, Nav1.7 in CHO cells). Details: holding potential −50 mV, inhibition based on 7.5 min compound incubation, read-out: hNaV1.7 EP_SP.
T1 construct: expressed in transfected cells
Type: cell-based
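Further: Nav1.7 stably expressed from cDNA in CHO cells, holding potential of −50 mV kept for the entire experiment.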

T1 sequence (Q15858 1-1977 isoform Q15858-3): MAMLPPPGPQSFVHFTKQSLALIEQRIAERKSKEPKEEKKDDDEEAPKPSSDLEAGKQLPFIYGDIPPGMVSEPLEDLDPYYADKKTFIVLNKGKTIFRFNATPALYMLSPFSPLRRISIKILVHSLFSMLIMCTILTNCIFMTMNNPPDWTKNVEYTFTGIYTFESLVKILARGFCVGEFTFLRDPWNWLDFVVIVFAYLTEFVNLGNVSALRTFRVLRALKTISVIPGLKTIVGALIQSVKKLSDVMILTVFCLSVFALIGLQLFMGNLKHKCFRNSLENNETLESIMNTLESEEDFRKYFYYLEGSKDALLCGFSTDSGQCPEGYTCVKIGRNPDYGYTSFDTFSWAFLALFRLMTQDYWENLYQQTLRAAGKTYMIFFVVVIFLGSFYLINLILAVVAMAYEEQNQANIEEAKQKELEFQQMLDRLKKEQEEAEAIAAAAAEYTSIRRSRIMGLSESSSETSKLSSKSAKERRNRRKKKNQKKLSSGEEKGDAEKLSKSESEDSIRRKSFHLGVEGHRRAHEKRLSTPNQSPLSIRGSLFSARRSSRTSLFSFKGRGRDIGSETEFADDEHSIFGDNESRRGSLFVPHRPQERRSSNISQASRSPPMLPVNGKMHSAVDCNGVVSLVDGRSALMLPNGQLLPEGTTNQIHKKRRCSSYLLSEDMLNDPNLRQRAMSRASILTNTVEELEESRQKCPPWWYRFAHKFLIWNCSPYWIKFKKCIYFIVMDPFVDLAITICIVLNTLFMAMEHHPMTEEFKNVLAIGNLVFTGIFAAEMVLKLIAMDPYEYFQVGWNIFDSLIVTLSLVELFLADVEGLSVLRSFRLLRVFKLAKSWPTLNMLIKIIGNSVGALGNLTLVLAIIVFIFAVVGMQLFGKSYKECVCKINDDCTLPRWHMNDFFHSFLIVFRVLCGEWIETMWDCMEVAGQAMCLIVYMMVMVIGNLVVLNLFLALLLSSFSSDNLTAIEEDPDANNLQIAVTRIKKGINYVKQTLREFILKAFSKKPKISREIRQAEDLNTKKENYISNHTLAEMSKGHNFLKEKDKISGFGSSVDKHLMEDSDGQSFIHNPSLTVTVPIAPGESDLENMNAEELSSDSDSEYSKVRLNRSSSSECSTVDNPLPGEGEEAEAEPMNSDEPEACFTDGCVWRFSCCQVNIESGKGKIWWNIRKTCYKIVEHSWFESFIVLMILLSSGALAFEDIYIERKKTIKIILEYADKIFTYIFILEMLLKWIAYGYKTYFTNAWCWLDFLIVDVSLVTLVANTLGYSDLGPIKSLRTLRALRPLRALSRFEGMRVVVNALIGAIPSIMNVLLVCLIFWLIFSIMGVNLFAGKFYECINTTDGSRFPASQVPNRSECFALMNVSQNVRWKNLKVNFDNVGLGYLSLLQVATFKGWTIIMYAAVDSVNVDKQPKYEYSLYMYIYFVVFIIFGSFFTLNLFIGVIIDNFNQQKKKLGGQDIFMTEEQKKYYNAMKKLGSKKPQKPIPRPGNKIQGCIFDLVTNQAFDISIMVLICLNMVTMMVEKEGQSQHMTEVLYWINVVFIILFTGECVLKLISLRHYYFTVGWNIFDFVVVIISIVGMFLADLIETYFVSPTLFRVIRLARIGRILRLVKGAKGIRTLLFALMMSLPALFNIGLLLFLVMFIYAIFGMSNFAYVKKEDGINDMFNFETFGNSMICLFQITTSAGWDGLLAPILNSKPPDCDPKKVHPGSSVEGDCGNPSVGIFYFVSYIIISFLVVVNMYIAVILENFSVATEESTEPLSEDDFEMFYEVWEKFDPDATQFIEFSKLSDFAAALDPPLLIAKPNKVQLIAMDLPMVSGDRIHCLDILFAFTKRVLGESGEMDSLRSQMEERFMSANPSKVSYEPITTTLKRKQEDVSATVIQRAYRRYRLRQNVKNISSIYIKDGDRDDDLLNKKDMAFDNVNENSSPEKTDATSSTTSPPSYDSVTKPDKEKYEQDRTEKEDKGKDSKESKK

Row | IC50 | Structure (SMILES)
1 | 540 nM | CN(C)[C@H]1CCCC[C@@H]1Nc1ccc(S(=O)(=O)NC(=O)c2ccc(OCC3CCCC3)c(Cl)c2)c(F)c1 [Example 57, 3-chloro-4-(cyclopentylmethoxy)-N-((4-(((1S,2S)-2-(dimethylamino)-cyclohexyl)amino)-2-fluorophenyl)sulfonyl)benzamide formate]
2 | 830 nM | CN(C)[C@H]1CCCC[C@@H]1Oc1ccc(S(=O)(=O)Nc2ccc(Oc3ccc(Cl)cc3)cn2)c(F)c1 [Example 258, N-(5-(4-chlorophenoxy)pyridin-2-yl)-4-(((1S,2S)-2-(dimethylamino)cyclohexyl)oxy)-2-fluorobenzenesulfonamide]
3 | 130 nM | O=C(NS(=O)(=O)c1ccc(OCc2ccccc2)cc1)c1cc(Cl)c(OCC2CCCC2)cc1F [Example 294, N-((4-(benzyloxy)phenyl)sulfonyl)-5-chloro-4-(cyclopentylmethoxy)-2-fluorobenzamide]
4 | 230 nM | COc1ccccc1S(=O)(=O)NC(=O)c1cc(Cl)c(OCC2CCCC2)cc1F [Example 246, 5-chloro-4-(cyclopentylmethoxy)-2-fluoro-N-((2-methoxyphenyl)sulfonyl)benzamide]
5 | 420 nM | O=C(NS(=O)(=O)CCCOc1cccc(C(F)(F)F)c1)c1cc(Cl)c(OCC2CCCC2)cc1F [Example 253, 5-chloro-4-(cyclopentylmethoxy)-2-fluoro-N-((3-(3-(trifluoromethyl)phenoxy)propyl)sulfonyl)benzamide]
6 | 15 nM | NC[C@@H]1CN(S(=O)(=O)NC(=O)c2cc(C3CC3)c(OCC3CCCC3)cc2F)CCO1 (single isomer, unassigned) [Example 25, 2,2,2-trifluoroacetate]
7 | 10 nM | O=C(NS(=O)(=O)C1CC1)c1cc(Cl)c(OCC2CCCC2)cc1F [Example 328, 5-chloro-4-(cyclopentylmethoxy)-N-(cyclopropylsulfonyl)-2-fluorobenzamide]
8 | 290 nM | CN(C)[C@H]1CCCC[C@@H]1Nc1ccc(S(=O)(=O)NC(=O)c2cc(Cl)c(OCC3CCCC3)cc2F)cc1 [Example 64, 5-chloro-4-(cyclopentylmethoxy)-N-((4-(((1S,2S)-2-(dimethylamino)-cyclohexyl)amino)phenyl)sulfonyl)-2-fluorobenzamide formate]
9 | 38 nM | Cn1cc(COc2ccc(S(=O)(=O)NC(=O)c3cc(Cl)c(OCC4CCCC4)cc3F)cc2)cn1 [Example 299, 5-chloro-4-(cyclopentylmethoxy)-2-fluoro-N-((4-((1-methyl-1H-pyrazol-4-yl)methoxy)phenyl)sulfonyl)benzamide]
10 | 620 nM | O=C(NS(=O)(=O)c1ccc(C(F)(F)F)cc1)c1cc(Cl)c(OCC2CCCC2)cc1F [Example 283, 5-chloro-4-(cyclopentylmethoxy)-2-fluoro-N-((4-(trifluoromethyl)phenyl)sulfonyl)benzamide]
11 | 100 nM | COc1cccc(COc2ccc(S(=O)(=O)NC(=O)c3cc(Cl)c(OCC4CCCC4)cc3F)cc2)c1 [Example 308, 5-chloro-4-(cyclopentylmethoxy)-2-fluoro-N-((4-((3-methoxybenzyl)oxy)phenyl)sulfonyl)benzamide]
12 | 530 nM | O=C(NS(=O)(=O)c1ccc2c(c1)CCCC2)c1cc(Cl)c(OCC2CCCC2)cc1F [Example 261, 5-chloro-4-(cyclopentylmethoxy)-2-fluoro-N-((5,6,7,8-tetrahydronaphthalen-2-yl)sulfonyl)benzamide]
13 | 110 nM | O=C(NS(=O)(=O)c1ccc(OCc2ccc(F)cc2)cc1)c1cc(Cl)c(OCC2CCCC2)cc1F [Example 319, 5-chloro-4-(cyclopentylmethoxy)-2-fluoro-N-((4-((4-fluorobenzyl)oxy)phenyl)sulfonyl)benzamide]
14 | 110 nM | CN1CC(OC2CCN(S(=O)(=O)NC(=O)c3cc(Cl)c(OCC4CCCC4)cc3F)CC2)C1 [Example 1, 5-chloro-4-(cyclopentylmethoxy)-2-fluoro-N-((4-((1-methylazetidin-3-yl)oxy)piperidin-1-yl)sulfonyl)benzamide]
15 | 260 nM | O=C(NS(=O)(=O)c1ccc2c(c1)CCO2)c1cc(Cl)c(OCC2CCCC2)cc1F [Example 271, 5-chloro-4-(cyclopentylmethoxy)-N-((2,3-dihydrobenzofuran-5-yl)sulfonyl)-2-fluorobenzamide]
16 | 590 nM | NC(=O)[C@@H]1Cc2cc(S(=O)(=O)NC(=O)c3cc(Cl)c(OCC4CCCC4)cc3F)ccc2O1 [Example 277, (S)-5-(N-(5-chloro-4-(cyclopentylmethoxy)-2-fluorobenzoyl)sulfamoyl)-2,3-dihydrobenzofuran-2-carboxamide]
17 | 320 nM | COc1cc(C(=O)NS(=O)(=O)N2CCC(OC3CN(C)C3)CC2)c(F)cc1OCC1CCCC1 [Example 6, 4-(cyclopentylmethoxy)-2-fluoro-5-methoxy-N-((4-((1-methylazetidin-3-yl)oxy)piperidin-1-yl)sulfonyl) benzamide]
18 | 770 nM | CCc1cccc(S(=O)(=O)NC(=O)c2cc(Cl)c(OCC3CCCC3)cc2F)c1 [Example 244, 5-chloro-4-(cyclopentylmethoxy)-N-((3-ethylphenyl)sulfonyl)-2-fluorobenzamide]
19 | 340 nM | COc1ccc(F)cc1-c1nccc2cc(S(=O)(=O)NC(=O)c3cc(Cl)c(OCC4CCCC4)cc3F)ccc12 [Example 72, 5-chloro-4-(cyclopentylmethoxy)-2-fluoro-N-((1-(5-fluoro-2-methoxy-phenyl)isoquinolin-6-yl)sulfonyl)benzamide]

Row | IC50 | Structure (SMILES)
20 | 860 nM | O=C(NS(=O)(=O)N1CC(O[C@@H]2CCCNC2)C1)c1cc(Cl)c(OCC2CCCC2)cc1F (single isomer, unassigned) [Example 48]
21 | 24 nM | C[C@@H]1CCc2ccccc2N1S(=O)(=O)NC(=O)c1cc(Cl)c(OCC2CCCC2)cc1F (single isomer, unassigned) [Example 18]
22 | 330 nM | O=C(NS(=O)(=O)c1ccc2c(c1)CCCO2)c1cc(Cl)c(OCC2CCCC2)cc1F [Example 265, 5-chloro-N-(chroman-6-ylsulfonyl)-4-(cyclopentylmethoxy)-2-fluorobenzamide]
23 | 140 nM | CN(C)[C@H]1CCCC[C@@H]1OC1CCN(S(=O)(=O)NC(=O)c2cc(C3CC3)c(OCC3CCCC3)cc2F)CC1 [Example 331, 4-(cyclopentylmethoxy)-5-cyclopropyl-N-((4-(((1S,2S)-2-(dimethylamino)cyclohexyl)oxy)piperidin-1-yl)sulfonyl)-2-fluorobenzamide]
24 | 250 nM | O=C(NS(=O)(=O)c1ccc(OCc2ccc(F)cc2F)cc1)c1cc(Cl)c(OCC2CCCC2)cc1F [Example 317, 5-chloro-4-(cyclopentylmethoxy)-N-((4-((2,4-difluorobenzyl)oxy)phenyl)sulfonyl)-2-fluorobenzamide]
25 | 17 nM | CN(C)C1CCCN(c2cc(F)c(S(=O)(=O)NC(=O)c3cc(Cl)c(OCC4CCCC4)cc3F)c(F)c2)C1 (stereo not shown) [Example 62, 5-chloro-4-(cyclopentylmethoxy)-N-((4-(3-(dimethylamino)piperidin-1-yl)-2,6-difluorophenyl)sulfonyl)-2-fluorobenzamide formate]
26 | 130 nM | O=C(NS(=O)(=O)N1CCC(OC2CN(C3COC3)C2)CC1)c1cc(Cl)c(OCC2CCCC2)cc1F [Example 11, 5-chloro-4-(cyclopentylmethoxy)-2-fluoro-N-((4-((1-(oxetan-3-yl)azetidin-3-yl)oxy)piperidin-1-yl)sulfonyl)benzamide]
27 | 63 nM | O=C(NS(=O)(=O)N1C[C@@H]2CC[C@@H](C2)C1)c1cc(Cl)c(OCC2CCCC2)cc1F [Example 230, N-(((1R,5S)-3-azabicyclo[3.2.1]octan-3-yl)sulfonyl)-5-chloro-4-(cyclopentylmethoxy)-2-fluorobenzamide]
28 | 110 nM | O=C(NS(=O)(=O)N1CCCc2cccnc21)c1cc(Cl)c(OCC2CCCC2)cc1F [Example 15, 5-chloro-4-(cyclopentylmethoxy)-N-((3,4-dihydro-1,8-naphthyridin-1(2H)-yl)sulfonyl)-2-fluorobenzamide]
29 | 370 nM | N[C@]12C[C@H]1CN(S(=O)(=O)NC(=O)c1cc(Cl)c(OCC3CCCC3)cc1F)C2 (single isomer, unassigned) [Example 217, 2,2,2-trifluoroacetate]
30 | 40 nM | C[C@H]1CCCCN1S(=O)(=O)NC(=O)c1cc(Cl)c(OCC2CCCC2)cc1F (single isomer, unassigned) [Example 224]
31 | 14 nM | O=C(NS(=O)(=O)N1CC[C@@H]2CCC[C@H]21)c1cc(Cl)c(OCC2CCCC2)cc1F (single isomer, unassigned) [Example 220]
32 | 84 nM | CN1CC(OC2CCN(S(=O)(=O)NC(=O)c3cc(C4CC4)c(OCC(F)(F)F)cc3F)CC2)C1 [Example 238, 5-cyclopropyl-2-fluoro-N-((4-((1-methylazetidin-3-yl)oxy)piperidin-1-yl)sulfonyl)-4-(2,2,2-trifluoroethoxy)benzamide]
33 | 50 nM | CN(C)[C@H]1CCCC[C@@H]1Nc1cc(F)c(S(=O)(=O)NC(=O)c2cc(Cl)c(OCC3CCCC3)cc2F)c(F)c1 [Example 206, 5-chloro-4-(cyclopentylmethoxy)-N-((4-(((1S,2S)-2-(dimethylamino)-cyclohexyl)amino)-2,6-difluorophenyl)sulfonyl)-2-fluorobenzamide]
34 | 500 nM | O=C(NS(=O)(=O)c1ccc(F)c2ncccc12)c1cc(Cl)c(OCC2CCCC2)cc1F [Example 279, 5-chloro-4-(cyclopentylmethoxy)-2-fluoro-N-((8-fluoroquinolin-5-yl)sulfonyl)benzamide]
35 | 10 nM | C[C@@H]1CCCCN1S(=O)(=O)NC(=O)c1cc(Cl)c(OCC2CCCC2)cc1F (single isomer, unassigned) [Example 225]
36 | 340 nM | CN(C)C1CN(S(=O)(=O)NC(=O)c2cc(Cl)c(OCC3CCCC3)cc2F)C1 [Example 234, 5-chloro-4-(cyclopentylmethoxy)-N-((3-(dimethylamino)azetidin-1-yl)sulfonyl)-2-fluorobenzamide]
37 | 130 nM | O=C(NS(=O)(=O)CC1Cc2ccccc2C1)c1cc(Cl)c(OCC2CCCC2)cc1F [Example 266, 5-chloro-4-(cyclopentylmethoxy)-N-(((2,3-dihydro-1H-inden-2-yl)methyl)sulfonyl)-2-fluorobenzamide]

Reference: patent publication US20240228463A1, “SODIUM CHANNEL INHIBITORS AND METHODS OF DESIGNING SAME” (Genentech, Inc., priority 2021, published 2024)
